In patent publication US8314250B2, “Sultam derivatives” (Hoffmann-La Roche Inc., priority 2009, dated 2012):
Where a name gives a salt, the structure may show the parent alone.

What was measured:
Format in all cases: cell-based
HeLa cells = assay: CellTiter-Glo luminescent cell viability (cytotoxicity) assay; conditions: 10 μM test compound, inhibition of luminescence compared to control cells; for inhibition at 10 µM: Homo sapiens, HeLa, 48 h, read-out: Activity (PCT_INHIB @ 10 μM)
Protocol: Cytotoxicity was assessed using Promega's CellTiter-Glo® luminescent cell viability assay (Promega Corporation, Madison, Wis., USA) as described in Promega Technical Bulletin TB288, revised August 2008. The assay was performed in HeLa cells at a maximum concentration tested of 10 μM of test compound. This assay measures the amount of adenosine triphosphate (ATP) present as a way of quantifying the presence and degree of metabolic activity in cell cultures.
Viable Hela cells were plated at a density of 3000 cells/well in 96 wells in black, clear bottom plates. Cells were allowed to attach to the plate by incubating overnight at 37° C. Test compounds were diluted in DMSO then further diluted in 10% FBS media. Media was removed from the cell plates and 50 μL of the solution was added to each well manually with the exception of the control well, which contained the same volume of 10% FBS media which includes 1% DMSO. Cells were incubated in the presence of compound undisturbed for 48 hours at 37° C. After the 48 hour compound exposure, 50 μL of the pCellTiter Glo® reagent was added. The cell plates were agitated on a shaker for 2 minutes to help lyse the cells. The plate was covered and read for luminescence.
Percent inhibition was calculated as follows: PCT_INHIB=100*[(U−T)/U] Where U represents the Luminescence of wells containing untreated cells and
T represents the Luminescence of wells containing compound-treated cells

[1] = system: H196, a small cell lung cancer cell line; assay: MTT tetrazolium dye proliferation assay; conditions: H196 cells, 5 days; for IC50: 50% inhibition of cell proliferation; for IC90: 90% inhibition of cell proliferation
Protocol: Proliferation was evaluated in an adherent cell line by the tetrazolium dye assay according to the procedure of Denizot and Lang (F. Denizot and R. Lang J. Immunol. Methods 1986, 89, 271-277). The cell line used was H196, a small cell lung cancer cell line obtained from the ATCC (ATCC Number CRL-5823™). The cells were grown in RPMI 1640 medium supplemented with 2.5% fetal bovine serum.
Cells were seeded into clear 96 well tissue culture treated plates at 20,000 cells per well. Plates were incubated overnight at 37° C. in a humidified incubator with 5% CO2. The next day, test compounds were serially diluted to three times the final concentration in the appropriate growth medium. 50 μL of a 3× dilution of drug was added per well for a final volume of 150 uL/well. Six concentrations were tested for each compound ranging from 10 μM to 30 nM. […] 50 μL of 0.75% DMSO in growth media was added per well for a final volume of 150 uL/well. The plates were returned to the incubator and, after 5 days, the plates were analyzed as follows: 3-(4,5-dimethylthiazol-2-yl)-2,5-diphenyl-2H-tetrazolium bromide (thiazolyl blue; MTT; Sigma) was added to each well to yield a final concentration of 1.25 mg/mL. Plates were returned to the incubator for 3 hours. The MTT-containing medium was removed and the resulting formazan metabolite was solubilized in 100% ethanol while shaking for 10 minutes at room temperature. Absorbances were read in a plate reader at a wavelength of 570 nm with a 660 nm reference. The concentrations of compounds leading to 50% and 90% inhibition of cell proliferation were determined by using the curve-fitting functionality of Microsoft Excel from plots of the logarithm of the concentration versus percent inhibition. These concentrations represent the IC50 and IC90 values, respectively.

H146 cell line = assay: MTS tetrazolium assay (proliferation, non-adherent cell line); conditions: H146 cells, 5 days; for IC50: 50% inhibition of cell proliferation; for IC90: 90% inhibition of cell proliferation
Protocol: Proliferation was evaluated in a non-adherent cell line using the MTS tetrazolium dye assay according to the procedure of Malich and colleagues (G. Malich et al. Toxicology 1997, 124, 179-192). The cell line used was H146 (ATCC Number HTB-173™). The cells were grown in RPMI 1640 medium supplemented with 2.5% fetal bovine serum.
Cells were seeded into clear 96 well tissue culture treated plates at 20,000 cells per well. Plates were incubated overnight at 37° C. in a humidified incubator with 5% CO2. The next day, test compounds were serially diluted to three times the final concentration in the appropriate growth medium. 50 μL of a 3× dilution of drug was added per well for a final volume of 150 uL/well. […] 50 μL of 0.75% DMSO in growth media was added per well for a final volume of 150 uL/well. The plates were returned to the incubator. After 5 days CellTiter 96® AQueous One Solution (Promega Corporation, Madison, Wis., USA) (25 μL/well) was added to each well and the plates were placed back in the incubator for 2-3 h. The absorbance at 490 nm was measured for each well using a plate reader. The concentrations of compounds leading to 50% and 90% inhibition of cell proliferation were determined by using the curve-fitting functionality of Microsoft Excel from plots of the logarithm of the concentration versus percent inhibition. These concentrations represent the IC50 and IC90 values, respectively.

Row | Structure (SMILES) | inhibition at 10 µM (HeLa cells) | IC50 [1] | IC90 [1] | IC50 (H146 cell line) | IC90 (H146 cell line) | Activity (PCT_INHIB @ 10 μM) (HeLa cells; 48 hours, 10 µM) | IC50 ([1]; NCI-H196, 120 h) | IC90 ([1]; NCI-H196, 120 h)
1 | COc1ccc(Cl)c(CN(Cc2cccc(CN3C(C(=O)N[C@H]4C[C@H]5C[C@@H]([C@@H]4C)C5(C)C)CCS3(=O)=O)c2)[C@H](CN(C)C)CC(C)(C)C)c1F (single isomer, unassigned; epimer 1) [Example 25] | 96% | 1.4 µM | 1.9 µM | 1.6 µM | 3.1 µM |  |  | 
2 | COc1ccc(Cl)c(CN(Cc2cccc(CN3C(C(=O)N[C@H]4C[C@H]5C[C@@H]([C@@H]4C)C5(C)C)CCS3(=O)=O)c2)[C@H](CN(C)C)CC(C)(C)C)c1F (single isomer, unassigned; epimer 2) [Example 26] |  |  |  | 0.7 µM | 1.2 µM | 97% | 1.3 µM | 1.8 µM
3 | COc1ccc(Cl)c(CN(Cc2cc(CN3C(C(=O)N[C@H]4C[C@H]5C[C@@H]([C@@H]4C)C5(C)C)CCS3(=O)=O)cc(N(C)C)c2)[C@H](CN(C)C)CC(C)(C)C)c1F (stereo partly drawn) [Example 35, 2-(3-{[(6-Chloro-2-fluoro-3-methoxy-benzyl)-((S)-1-dimethylaminomethyl-3,3-dimethyl-butyl)-amino]-methyl}-5-dimethylamino-benzyl)-1,1-dioxo-1λ^6-isothiazolidine-3-carboxylic acid((1S,2S,3S,5R)-2,6,6-trimethyl-bicyclo[3.1.1]hept-3-yl)-amide, hydrochloride salt] | 86% |  |  |  |  |  |  | 
